{"source": "patent US8927732B2", "about": "“Biotin stannane for HPLC-free radioiodination” (General Electric Company, priority 2012, dated 2015)", "target": "streptavidin resin column (Streptomyces avidinii, UniProt P22629)", "sequence (P22629 25-183)": "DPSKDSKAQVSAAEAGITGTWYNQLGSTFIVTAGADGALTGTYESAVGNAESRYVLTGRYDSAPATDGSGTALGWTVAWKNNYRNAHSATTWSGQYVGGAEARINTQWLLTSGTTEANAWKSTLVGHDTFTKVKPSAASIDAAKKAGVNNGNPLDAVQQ", "assay": "Purification with streptavidin resin column in the presence of additives (solubility enhancing agent study)", "conditions": "eluent PBS", "experimental": "To an Eppendorf vial were added 56.6 μg precursor 4 (56.6 μL, 1.0 mg/mL, EtOH), 5 μL AcOH, Na^125I (18.5 MBq or 500 μCi, pH 8˜11 in aqueous NaOH) and iodogen (50 μL, 0.2 mg/mL in EtOH), subsequently. The reaction mixture was allowed to sit at room temperature for 20 minutes, with occasional swirling. After quenching with 100 μL of Na2S2O3 (0.1 M aq.), the mixture was diluted with 100 μL of EtOH then added to the binding buffer tested as described below.\nA streptavidin resin column was packed using 1.6 mL of resin slurry (0.8 mL of actual resin) as described previously and washed with the appropriate binding buffer (4.0 mL, 5 cv). An 80 μL aliquot of the above radiolabeling mixture was diluted with the appropriate binding buffer (920 μL) and mixed for 10 minutes before loading onto streptavidin column. After incubation for 20 minutes, radiolabeled product was eluted off the column with binding buffer (three 0.5 mL fractions collected). All fractions (including a forerun fraction collected while loading the reaction mixture onto column) were subjected to HPLC analysis before being combined.", "data": [{"smiles": "O=C(OCc1ccccc1)c1cccc([125I])c1", "note": "[Compound 125I-3IBABn]", "values": [{"measurement": "Activity left on column", "setting": "10% HP-β-CD w/v", "value": 16, "unit": "%"}, {"measurement": "Activity left on column", "setting": "20% HP-β-CD w/v", "value": 13, "unit": "%"}, {"measurement": "Activity left on column", "setting": "40% HP-β-CD w/v", "value": 7, "unit": "%"}]}]}
